The subject of data set [1] is thrombus formation in an arteriovenous shunt. The data set is described as follows: Arteriovenous shunt model (rat), antithrombotic action. It counts as in vivo. The settings on record: oral dosage, read-out: ED50 [mg/kg] p.o. The method, then:
Fasting male rats (strain: HSD CPB:WU) having a weight of 200-250 g are anesthetized using a Rompun/Ketavet solution (12 mg/kg/50 mg/kg). Thrombus formation is induced in an arteriovenous shunt following the method described by Christopher N. Berry et al., Br. J. Pharmacol. (1994), 113, 1209-1214. For this, the left jugular vein and the right carotid artery are exposed. An extracorporeal shunt is arranged between the two vessels by means of a 10 cm long polyethylene tube (PE 60). This polyethylene tube was linked in the center to a further 3 cm long polyethylene tube (PE 160), which contained a nylon thread which was roughened and linked to a loop for the production of a thrombogenic surface. The extracorporeal circulation is maintained for 15 minutes. The shunt is then removed and the nylon thread with the thrombus is immediately weighed. The unloaded weight of the nylon thread had been determined before the start of the experiment. Before starting the extracorporeal circulation, test substances are administered to conscious animals either intravenously via the caudal vein or orally by means of stomach tube.

Each structure is given as a SMILES string.

`O=C(NC[C@H]1CN(c2ccc(N3CCOCC3=O)cc2)C(=O)O1)c1ccc(Cl)s1` [Example 44, 5-Chloro-N-({(5S)-2-oxo-3-[4-(3-oxo-4-morpholinyl)phenyl]-1,3-oxazolidin-5-yl}methyl)-2-thiophenecarboxamide]: the ED50 in data set [1] came to 3 mg/kg. As a reminder, the melting point is the temperature, or range, at which the solid turns liquid. For the compound `O=C(NC[C@H]1CN(c2ccc(N3CCCOC3=O)cc2)C(=O)O1)c1ccc(Cl)s1` [Example 255], the melting point was 228 to 230 °C.

Values taken from patent US20100160301A1, “MICROANGIOPATHY TREATMENT AND PREVENTION” (BAYER HEALTHCARE AG, priority 2005, published 2010).
